Data taken from publication PMC10459521, “Unfolding the Antibacterial Activity and Acetylcholinesterase Inhibition Potential of Benzofuran-Triazole Hybrids: Synthesis, Antibacterial, Acetylcholinesterase Inhibition, and Molecular Docking Studies” (Molecules, 2023).
≈ marks a conversion by molar mass, not a printed value. Like-named read-outs stand apart in the source and are kept apart here.

Tests used:
B. subtilis QB-928 = assay: Antibacterial assay, disc diffusion method (inhibition zone and MIC); assay type: cell-based; settings: for zone of inhibition at 25 µg/disc: QB928, disc diffusion; for zone of inhibition at 25 µg/disc / Inhibition Zone: 25 μg per disc, includes 5.6 mm disc diameter; for Inhibition Zone: disc diffusion
Experimental: (§1) The evaluation of in vitro antibacterial activity of synthesized compounds was performed against two bacterial strains, namely Gram +ve B. subtilis QB-928 and Gram −ve E. coli AB-274 using the disc diffusion method.
(§2) The antibacterial potential of all targeted compounds was evaluated using the disc diffusion method. A suspension of 100 μL containing 10^8 cfu/mL of bacteria was applied on nutrient agar media with the support of a sterilized loop. The compound solution was infused into sterilized filter paper discs (5.6 mm in diameter) at a particular concentration (25 μg/100 μL) in chloroform. The standard penicillin (25 μg per disc) was utilized as a positive control for antibacterial assay. These discs were carefully placed on agar which had originally been […] with selected bacterial cells. The agar culture plates were stored at 4 °C for 1 h and then the bacterial culture plate was incubated at 27 °C for 24 h. The inhibition zone was determined in millimeters (including the 5.6 mm disc diameter) with a reference control.

[1] = biological target: acetylcholinesterase (AChE) (Homo sapiens, UniProt P22303); assay: AChE inhibition assay (modified Ellman's method); assay type: biochemical; settings: for inhibition at 500 µM: 0.5 mM; for IC50: Ellman's method
Chain of acetylcholinesterase (AChE) (P22303 32-614): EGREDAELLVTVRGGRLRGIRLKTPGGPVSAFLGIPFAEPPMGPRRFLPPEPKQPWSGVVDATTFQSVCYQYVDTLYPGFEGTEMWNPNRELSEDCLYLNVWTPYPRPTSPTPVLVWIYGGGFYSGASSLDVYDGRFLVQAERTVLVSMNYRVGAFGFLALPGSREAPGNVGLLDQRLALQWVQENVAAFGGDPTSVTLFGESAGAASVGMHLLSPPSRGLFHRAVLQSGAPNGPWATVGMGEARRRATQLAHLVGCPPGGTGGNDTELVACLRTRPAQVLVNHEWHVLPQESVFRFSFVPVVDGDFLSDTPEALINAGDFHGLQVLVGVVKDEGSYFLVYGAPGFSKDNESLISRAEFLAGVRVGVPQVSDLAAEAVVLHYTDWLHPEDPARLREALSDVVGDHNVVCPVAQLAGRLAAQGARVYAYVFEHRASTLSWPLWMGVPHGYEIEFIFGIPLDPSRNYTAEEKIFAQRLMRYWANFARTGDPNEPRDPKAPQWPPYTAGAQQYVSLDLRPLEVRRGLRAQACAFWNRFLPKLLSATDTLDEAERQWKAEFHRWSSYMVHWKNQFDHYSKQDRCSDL
Experimental: The inhibitory effects of all synthesized derivatives on AChE activities were measured using a modified Ellman’s method. This experimental study used DTNB (5,5′-dithio-bis(2-nitro-benzoic)acid) and AChI as the […]. The tested compounds (10 µL; […]) were mixed with AChE (50 µL; 38 U) solution and incubated for 10 min at 25 °C. DTNB (50 µL; 0.3 mM) was then added. The transfer of AChI (200 µL; 50 mM Tris/HCl buffer pH = 8) initiated the reaction. A spectrophotometer recorded the hydrolysis of AChI by the formation of yellow 5-thio-2-nitrobenzoate anions as a result of the reaction of DTNB with thiocholine at a wavelength of 412 nm. […] The given formula was used to calculate the (%) inhibition: Inhibition %=Control−Test/Control×100
IC50 values were calculated using data from GraphPad Prism 5 software.

E. coli AB-274 = assay: Antibacterial assay, disc diffusion method (inhibition zone and MIC); assay type: cell-based; settings: for Inhibition Zone / zone of inhibition at 25 µg/disc: disc diffusion, 25 μg per disc, includes 5.6 mm disc diameter
Experimental: as §1
as §2, with “The compound solution was infused into sterilized filter paper discs (5.6 mm in diameter) at a particular concentration (25 μg/100 μL) in chloroform.” left out, “The inhibition zone was determined in millimeters (including the 5.6 mm disc diameter) with a reference control.” left out

AChE = settings: Figure 2; cited from earlier work
[2] = Bacillus subtilis, QB928, read-out: MIC
[3] = Escherichia coli, AB274, E. coli
[4] = Escherichia coli, AB274, E. coli, read-out: MIC

Molecule | zone of inhibition at 25 µg/disc (B. subtilis QB-928; Bacillus subtilis) [mm] | MIC (B. subtilis QB-928; [2]) [µg/mL] | Inhibition Zone (B. subtilis QB-928) | inhibition at 500 µM [1] [%] | IC50 [1] [nM] | Inhibition Zone (E. coli AB-274; E. coli) [mm] | zone of inhibition at 25 µg/disc (E. coli AB-274; [3]) [mm] | MIC (E. coli AB-274; [4]) [µg/mL] | IC50 (AChE) [nM] | other results
O=C(CSc1nnc(-c2cc3cc(Br)ccc3o2)n1-c1ccc(Cl)c(Cl)c1)Nc1ccc(Cl)c(Cl)c1 [Compound 10e, 2-((5-(5-Bromobenzofuran-2-yl)-4-(3,4-dichlorophenyl)-4H-1,2,4-triazol-3-yl)thio)-N-(3,4-dichlorophenyl)acetamide] | 8 | 14 ± 1.8 (≈ 21.8 µM) | 8 ± 0.75 mm | 51.2 ± 1.24 | 1980 ± 250 | 24 ± 0.50 | 24 | 2.5 ± 1.4 (≈ 3.89 µM) | – | –
O=C(CSc1nnc(-c2cc3cc(Br)ccc3o2)n1-c1ccccc1)Nc1ccccc1 [Compound 10a, 2-((5-(5-bromobenzofuran-2-yl)-4-phenyl-4H-1,2,4-triazol-3-yl)thio)-N-phenylacetamide] | – | – | no detectable results | 65.8 ± 1.5 | 880 ± 500 | 38 ± 1.50 | 38 | – | – | MIC (E. coli AB-274; E. coli): 1.80 µg/mL (≈ 3.56 µM); MIC (E. coli AB-274; Escherichia coli, AB274): 1.8 ± 0.25 µg/mL (≈ 3.56 µM)
O=C(NCCCNc1c2c(nc3cc(Cl)ccc13)CCCC2)c1cc2ccccc2o1 [Compound 1b] | – | – | – | – | – | – | – | – | 120 | –
COc1cccc2cc(C(=O)NCCn3ccc(=O)c(OCc4ccccc4)c3C)oc12 [Compound 1d] | – | – | – | – | – | – | – | – | 76000 | –
penicillin [reference compound] | – | – | 18 ± 0.50 mm | – | – | 24 ± 0.50 | – | – | – | MIC (B. subtilis QB-928): 1 ± 1.50 µg/mL; Inhibition Zone (B. subtilis QB-928; listed as penicillin): 18 mm; MIC (B. subtilis QB-928; listed as penicillin): 1 µg/mL; MIC (E. coli AB-274; E. coli): 2.4 ± 1.00 µg/mL
COc1cccc2cc(C(=O)NCCCCNC(=O)c3cc4ccccc4o3)c(=O)oc12 [Compound 1c] | – | – | – | – | – | – | – | – | 180 ± 50 | –
O=C(CSc1nnc(-c2cc3cc(Br)ccc3o2)n1-c1ccccc1)Nc1ccc([N+](=O)[O-])cc1 [Compound 10c, 2-((5-(5-Bromobenzofuran-2-yl)-4-phenyl-4H-1,2,4-triazol-3-yl)thio)-N-(4-nitrophenyl)acetamide] | – | – | no detectable results | 55.9 ± 1.25 | 2280 ± 1750 | 28 ± 0.00 | 28 | 2.5 ± 0.7 (≈ 4.54 µM) | – | –
COc1ccc(OC)c(NC(=O)CSc2nnc(-c3cc4cc(Br)ccc4o3)n2-c2ccc(Cl)c(Cl)c2)c1 [Compound 10d, 2-((5-(5-Bromobenzofuran-2-yl)-4-(3,4-dichlorophenyl)-4H-1,2,4-triazol-3-yl)thio)-N-(2,5-dimethoxyphenyl)acetamide] | 11 | 9.25 ± 1.25 (≈ 14.6 µM) | 11 ± 0.50 mm | 81.45 ± 0.5 | 550 ± 1000 | 12 ± 0.65 | 12 | 16 ± 1 (≈ 25.2 µM) | – | –
Cc1ccc(NC(=O)CSc2nnc(-c3cc4cc(Br)ccc4o3)n2-c2ccccc2)cc1C [Compound 10b, 2-((5-(5-Bromobenzofuran-2-yl)-4-phenyl-4H-1,2,4-triazol-3-yl)thio)-N-(3,4-dimethylphenyl)acetamide] | 42 | 1.25 ± 0.6 (≈ 2.34 µM) | 42 ± 1.00 mm | 61.7 ± 1.5 | 1500 ± 1000 | 11.5 ± 1.40 | 11.5 | 3.8 ± 2.1 (≈ 7.12 µM) | – | MIC (B. subtilis QB-928): 1.25 µg/mL (≈ 2.34 µM)
Cc1cc(C)cc(C[n+]2ccc(-c3cc4ccccc4o3)cc2)c1 [Compound 1a] | – | – | – | – | – | – | – | – | 4.1 ± 1.5 | –
